Data taken from article PMC7326067, “The Critical Role of Tryptophan in the Antimicrobial Activity and Cell Toxicity of the Duck Antimicrobial Peptide DCATH” (Frontiers in Microbiology, 2020).
Where no end group is shown, it is not given here.

Experiments:
S. pullorum C79-13 = format: cell-based, Salmonella pullorum; settings: C79-13, 24 h
Procedure: (§1) Three types of Gram-positive bacteria (Staphylococcus epidermidis ATCC 12228, Staphylococcus aureus 29213 and Enterococcus faecalis ATCC 29212) and four types of Gram-negative bacteria (Escherichia coli UB1005, Escherichia coli ATCC 25922, Salmonella typhimurium ATCC 14028 and Salmonella pullorum C79–13) preserved in our lab were cultured in the medium of Muller-Hinton broth (MHB) medium (1.75% casamino acid, 0.2% beef extract, 0.15% soluble starch, pH 7.0). The murine macrophage cell line RAW 264.7 cells were procured from the American Type Culture Collection (Manassas, VA, United States) and cultured in DMEM containing 10% fetal bovine serum […], penicillin (100 units/ml) and streptomycin (100 units/ml) in 5% CO2 at 37°C.
(§2) The antimicrobial activity of peptides was examined against representative strains of Gram-positive bacteria (S. aureus ATCC 29213, S. epidermidis ATCC 12228 and E. faecalis ATCC 29212) and Gram-negative bacteria (E. coli ATCC 25922, E. coli UB1005, S. pullorum C79–13, and S. typhimurium ATCC 14028) which were cultured in MHB medium. Antimicrobial activity assay was performed according to a modified version of broth microdilution method ([Gao et al., 2015]). When grown to an OD600 of 0.4, the bacterial stains cultured in MHB were diluted to a final concentration of about 1 × 10^5 CFU/ml. Fifty microliter of microbial solution and 50 μl of two-fold diluted concentrations of peptides [0.2% (w/v) bovine serum albumin, 0.01% (v/v) acetic acid] were mixed in the sterile 96-well plate and cultured at 37°C for 24 h. MICs were identified as the lowest peptide concentration that no bacteria growth was observed by OD determination (492 nm). Each experiment was performed in triplicate. The geometric mean (GM) of the MICs of a peptide was calculated on the MIC values of the peptide against all tested bacteria, and was used to evaluate the antimicrobial activity of the peptide. The therapeutic index (TI) was defined as the ratio of the minimum hemolytic concentration (MHC) to the GM and was used to measure the peptide cell selectivity toward the component with negative charge of bacterial cell membranes over the zwitterionic membranes mammalian cells. TI was calculated as the ratio of the HC10 (the peptide concentration needed to reach 10% lysis of hRBCs) value to the GM (TI = HC10/GM).

[1] = system: S. epidermidis ATCC 12228; format: cell-based, Staphylococcus epidermidis; settings: ATCC 12228, 24 h
Procedure: as §1, §2

[2] = system: Human red blood cells (hRBCs); format: cell-based; settings: for MHC (minimum hemolytic concentration): red cells of human, 1 h
Procedure: The hemolytic activity assay of these peptides was performed according to the method of [Gao et al. (2015)]. Human red blood cells (hRBCs) donated by a healthy adult were collected by centrifugation and washed by phosphate-buffered saline (PBS) solution (pH 7.2). 1% (v/v) suspension of hRBCs in PBS was incubated with different concentrations of peptides dissolved in PBS for 1 h at 37°C. Absorbance in the supernatant was monitored at 405 nm. hRBCs in 0.1% Triton X-100 and PBS were used as positive and negative controls, respectively. The hemolysis percentage was calculated as follows:
%hemolysis=[A-sampleA]blank/[A-TritonA]blank×100.
FIGURE 1 Hemolytic and toxicity activity of the peptides. (A,B) Hemolytic activity against hRBCs. (C,D) Toxicity activity against RAW264.7 cells. Hemolytic activity was evaluated by incubating individual peptides in serial 2-fold dilutions with freshly isolated hRBCs at 37°C for 1 h, followed by measuring the released hemoglobin at 405 nm. For negative and positive controls, hRBCs in PBS and 0.1% Triton X-100 were used, respectively. Toxicity activity of the peptides against RAW264.7 was determined using MTT method. The peptides were incubated with RAW264.7 in a 96-well microtiter plate. After incubation with MTT, the supernatant was discarded and DMSO was added and the optical density (OD) at 570 nm was measured.

[3] = system: S. typhimurium ATCC 14028; format: cell-based, Salmonella typhimurium; settings: ATCC 14028, 24 h
Procedure: as §1, §2

S. aureus ATCC 29213 = format: cell-based, Staphylococcus aureus; settings: ATCC 29213, 24 h
Procedure: as §1, §2

E. coli ATCC 25922 = format: cell-based, Escherichia coli; settings: ATCC 25922, 24 h
Procedure: as §1, §2

E. coli UB1005 = format: cell-based, Escherichia coli; settings: UB1005, 24 h
Procedure: as §1, §2

E. faecalis ATCC 29212 = format: cell-based, Enterococcus faecalis; settings: ATCC 29212, 24 h
Procedure: as §1, §2

all tested bacteria = assay: MIC over all tested bacteria (geometric mean); format: cell-based; settings: calculated on the MIC values against all tested bacteria (7 strains)
Procedure: as §1, §2

[4] = system: BALB/c mice challenged with lethal dose of LPS; assay: Protection of mice from LPS-induced lethal infection; format: in vivo; settings: male BALB/c mice, LPS 20 mg/kg i.p.; PMB 2.5 mg/kg or peptide 10 mg/kg i.p. 1 h after challenge
Procedure: The 6–8 week-old male BALB/c mice (purchased from Charles River Laboratories, Beijing, China) were used to investigate the protective effect in vivo of peptides on LPS-induced infection. All animals were raised under specific pathogen-free conditions and the protocol was authorized by the Animal Care Committee of Northeast Agricultural University. Mice were divided into four groups (12 mice per group). 1 h after a challenge with a lethal dose of LPS intraperitoneal injection (20 mg/kg⋅body weight), 4 groups of mice were injected intraperitoneally with 0.5 ml PBS, PMB (2.5 mg/kg⋅body weight), dCATH(1–16) or dCATH(5–20) (10 mg/kg⋅body weight). General behavior, onset and course of clinical disease and mortality of mice were observed every 12 h for a period of 7 days.
FIGURE 8 Survival of mice from LPS-induced lethal infection by dCATH(1–16) or dCATH(5–20). Mice were subjected to a lethal dose of LPS, followed by i.p. injection of CATH(1–16) or dCATH(5–20) at 10 mg/kg or an equal volume of PBS as controls (n = 12). Survival was recorded every 12 h over 7 days.

QLVPLAIKIYRAWKRR-NH2 [dCATH(5–20)]
MIC S. pullorum C79-13 (S. pullorum C79-13): 8 µM
MIC S. epidermidis ATCC 12228 [1]: 4 µM
MHC (minimum hemolytic concentration) [2]: 128 µM
MIC S. typhimurium ATCC 14028 [3]: 4 µM
MIC S. aureus ATCC 29213 (S. aureus ATCC 29213): 2 µM
MIC E. coli ATCC 25922 (E. coli ATCC 25922): 1 µM
MIC E. coli UB1005 (E. coli UB1005): 4 µM
MIC E. faecalis ATCC 29212 (E. faecalis ATCC 29212): 4 µM
GM (geometric mean of the MICs) (all tested bacteria): 3.28 µM

QLVPLAIKIYRA-NH2 [dCATH(5–16)]
hemolytic activity (in words) [2]: negligible hemolytic activity
MIC E. coli ATCC 25922 (E. coli ATCC 25922): 64 µM
MIC E. coli UB1005 (E. coli UB1005): 128 µM
GM (geometric mean of the MICs) (all tested bacteria): 190.21 µM

WQLVPLAIKIYRAWKRR-NH2 [dCATH(4–20)]
MIC S. pullorum C79-13 (S. pullorum C79-13): 4 µM
MIC S. epidermidis ATCC 12228 [1]: 4 µM
hemolytic activity (in words) [2]: obvious hemolytic activity
MHC (minimum hemolytic concentration) [2]: 16 µM
MIC S. typhimurium ATCC 14028 [3]: 2 µM
MIC S. aureus ATCC 29213 (S. aureus ATCC 29213): 2 µM
MIC E. coli ATCC 25922 (E. coli ATCC 25922): 1 µM
MIC E. coli UB1005 (E. coli UB1005): 4 µM
MIC E. faecalis ATCC 29212 (E. faecalis ATCC 29212): 2 µM
GM (geometric mean of the MICs) (all tested bacteria): 2.44 µM

KRFWQLVPLAIKIYRA-NH2 [dCATH(1–16)]
MIC S. pullorum C79-13 (S. pullorum C79-13): 4 µM
MIC S. epidermidis ATCC 12228 [1]: 8 µM
MIC S. typhimurium ATCC 14028 [3]: 4 µM
MIC S. aureus ATCC 29213 (S. aureus ATCC 29213): 8 µM
MIC E. coli ATCC 25922 (E. coli ATCC 25922): 2 µM
MIC E. coli UB1005 (E. coli UB1005): 4 µM
MIC E. faecalis ATCC 29212 (E. faecalis ATCC 29212): 8 µM
GM (geometric mean of the MICs) (all tested bacteria): 4.88 µM

polymyxin B [PMB]
onset and symptoms of disease (in words) [4]: delayed the onset of disease of mice with less severe symptoms

KRFWQLVPLAIKIYRAWKRR-NH2 [dCATH]
MIC S. pullorum C79-13 (S. pullorum C79-13): 4 µM
MIC S. epidermidis ATCC 12228 [1]: 4 µM
hemolytic activity (in words) [2]: obvious hemolytic activity
MHC (minimum hemolytic concentration) [2]: 4 µM
MIC S. typhimurium ATCC 14028 [3]: 8 µM
MIC S. aureus ATCC 29213 (S. aureus ATCC 29213): 4 µM
MIC E. coli ATCC 25922 (E. coli ATCC 25922): 2 µM
MIC E. coli UB1005 (E. coli UB1005): 2 µM
MIC E. faecalis ATCC 29212 (E. faecalis ATCC 29212): 4 µM
GM (geometric mean of the MICs) (all tested bacteria): 3.62 µM

QLVPLAIKIYRAAKRR-NH2 [dCATH(5–20)-17A]
MIC S. epidermidis ATCC 12228 [1]: 32 µM
hemolytic activity (in words) [2]: negligible hemolytic activity
MIC S. typhimurium ATCC 14028 [3]: 64 µM
MIC S. aureus ATCC 29213 (S. aureus ATCC 29213): 32 µM
MIC E. coli ATCC 25922 (E. coli ATCC 25922): 64 µM
MIC E. faecalis ATCC 29212 (E. faecalis ATCC 29212): 32 µM
GM (geometric mean of the MICs) (all tested bacteria): 70.66 µM

KRFWQLVPLAIKIYRAWK-NH2 [dCATH(1–18)]
MIC S. pullorum C79-13 (S. pullorum C79-13): 2 µM
MIC S. epidermidis ATCC 12228 [1]: 2 µM
hemolytic activity (in words) [2]: obvious hemolytic activity
MHC (minimum hemolytic concentration) [2]: 8 µM
MIC S. typhimurium ATCC 14028 [3]: 2 µM
MIC S. aureus ATCC 29213 (S. aureus ATCC 29213): 2 µM
MIC E. coli ATCC 25922 (E. coli ATCC 25922): 1 µM
MIC E. coli UB1005 (E. coli UB1005): 2 µM
MIC E. faecalis ATCC 29212 (E. faecalis ATCC 29212): 2 µM
GM (geometric mean of the MICs) (all tested bacteria): 1.81 µM

FWQLVPLAIKIYRAWKRR-NH2 [dCATH(3–20)]
MIC S. pullorum C79-13 (S. pullorum C79-13): 2 µM
MIC S. epidermidis ATCC 12228 [1]: 1 µM
hemolytic activity (in words) [2]: obvious hemolytic activity
MHC (minimum hemolytic concentration) [2]: 4 µM
MIC S. typhimurium ATCC 14028 [3]: 4 µM
MIC S. aureus ATCC 29213 (S. aureus ATCC 29213): 2 µM
MIC E. coli ATCC 25922 (E. coli ATCC 25922): 1 µM
MIC E. coli UB1005 (E. coli UB1005): 2 µM
MIC E. faecalis ATCC 29212 (E. faecalis ATCC 29212): 2 µM
GM (geometric mean of the MICs) (all tested bacteria): 1.81 µM

KRFAQLVPLAIKIYRA-NH2 [dCATH(1–16)-4A]
MIC S. pullorum C79-13 (S. pullorum C79-13): 64 µM
MIC S. epidermidis ATCC 12228 [1]: 64 µM
hemolytic activity (in words) [2]: negligible hemolytic activity
MIC S. typhimurium ATCC 14028 [3]: 64 µM
MIC S. aureus ATCC 29213 (S. aureus ATCC 29213): 128 µM
MIC E. coli ATCC 25922 (E. coli ATCC 25922): 16 µM
MIC E. coli UB1005 (E. coli UB1005): 32 µM
MIC E. faecalis ATCC 29212 (E. faecalis ATCC 29212): 32 µM
GM (geometric mean of the MICs) (all tested bacteria): 47.55 µM

KRFAQLVPLAIKIYRAAKRR-NH2 [dCATH-AA]
MIC S. pullorum C79-13 (S. pullorum C79-13): 32 µM
MIC S. epidermidis ATCC 12228 [1]: 64 µM
hemolytic activity (in words) [2]: negligible hemolytic activity
MIC S. typhimurium ATCC 14028 [3]: 64 µM
MIC S. aureus ATCC 29213 (S. aureus ATCC 29213): 64 µM
MIC E. coli ATCC 25922 (E. coli ATCC 25922): 32 µM
MIC E. coli UB1005 (E. coli UB1005): 16 µM
MIC E. faecalis ATCC 29212 (E. faecalis ATCC 29212): 32 µM
GM (geometric mean of the MICs) (all tested bacteria): 39.01 µM

KRFWQLVPLAIKIYRAW-NH2 [dCATH(1–17)]
MIC S. pullorum C79-13 (S. pullorum C79-13): 4 µM
MIC S. epidermidis ATCC 12228 [1]: 4 µM
hemolytic activity (in words) [2]: obvious hemolytic activity
MHC (minimum hemolytic concentration) [2]: 8 µM
MIC S. typhimurium ATCC 14028 [3]: 4 µM
MIC S. aureus ATCC 29213 (S. aureus ATCC 29213): 2 µM
MIC E. coli ATCC 25922 (E. coli ATCC 25922): 1 µM
MIC E. coli UB1005 (E. coli UB1005): 1 µM
MIC E. faecalis ATCC 29212 (E. faecalis ATCC 29212): 2 µM
GM (geometric mean of the MICs) (all tested bacteria): 2.21 µM
